Measured values published in patent US12600796B2, “Constructs for chimeric antigen receptors” (Carisma Therapeutics Inc., priority 2020, dated 2026).

Key:
Human macrophages [1] = test: Viability, CAR expression and M1/M2 markers of HER2 CAR mRNA-electroporated macrophages treated with interferons; type: cell-based; details: for M1 phenotype (based on CD86 expression): FIG. 121E; for M2 markers (based on CD163 expression): FIG. 121F
Method: Human macrophages were electroporated with HER2 CAR mRNA comprising m6AGCap1 and PsU modifications. Cells were cultured with cytokines that induce an M1 phenotype such as IFN-alpha, IFN-beta, IFN-gamma, IFN-gamma plus lipopolysaccharide (LPS), TNF-alpha, IL-6 or a STING ligand (STING-L) for up to 48 hours and then cytokines were washed off and fresh media was added. CAR expression and M1 marker expression were measured on days 2 and 7 after transfection. Fluorescent labeled HER2+ breast cancer cells (CRL2351) were co-cultured with HER2 CAR macrophages two days after the macrophages were transfected. Cancer cell growth was monitored via its fluorescence on an Incucyte® live imaging microscope every four hours. The Effector (CAR macrophage) to Target (cancer cell) ratio was 5:1.
Five different mRNA modifications were also tested to determine if interferon treatment differentially affected macrophages transfected with mRNA comprising different modifications. Human macrophages were electroporated with HER2 CAR mRNA comprising different mRNA modifications. CAR expression and M1 markers were detected by Flow Cytometry (Attune) on day four after electroporation. Day 4 CAR macrophage cells were then co-cultured with a Nuc-Light labeled, HER2+ breast cancer cell line (CRL2351) at an Effector (CAR macrophage) to Target (cancer cell) ratio of 5:1. Cancer cell growth was monitored via its fluorescence on an Incucyte® live imaging microscope every four hours.
Human macrophages were electroporated with 300 nM CAR mRNA comprising m6AGCap1 and PsU modifications. Cells were cultured with 20 ng/mL IFNs for 24 hours and then the cells were washed to remove cytokines. CAR expression was detected by Flow Cytometry (Attune) on day 2 after transfection. Cells were then co-cultured with a Nuc-Light labeled, HER2+ breast cancer cell line (CRL2351) at the Effector to Target ratio of 3:1. Cancer cell growth was monitored via its fluorescence on an Incucyte® live imaging microscope. CAR expression and M1 markers in macrophages were detected by Flow Cytometry (Attune) on day 7 after transfection.

[2] = test system: HER2+ breast cancer cells (CRL2351); test: Cytokine secretion of interferon-treated HER2 CAR macrophages co-cultured with cancer cells (MSD); type: cell-based, human; details: E:T 3:1, supernatant at 48 hours; FIG. 126
Method: Human macrophages were electroporated with 150 nM HER2 CAR mRNA comprising m6AGCap1 and PsU modifications. HER2+ breast cancer cells (CRL2351) were co-cultured with CAR macrophages after the macrophages were transfected with the CAR mRNA at an Effector (CAR macrophage) to Target (cancer cell) ratio of 3:1. Supernatant was collected 48 hours after the cancer cells and macrophages were co-cultured and cytokine levels were measured using a Meso Scale Discovery (MSD) instrument.

Human macrophages [3] = test: mCherry mRNA expression in transfected macrophages (Incucyte); type: cell-based; details: different doses, one day; FIG. 129
Method: Human macrophages were transfected with mCherry mRNA comprising m6AGCap1 and PsU or N1mPsU modifications and were then cultured for one day with different doses of IFN-γ. mCherry expression was monitored on an Incucyte® live imaging microscope.
In order to determine whether an RNaseL inhibitor could rescue IFN-γ-induced instability of transfected mRNA, human macrophages were treated with 1 μM sunitinib (an RNaseL inhibitor) two hours prior to the transfection of mCherry mRNA comprising m6AGCap1 and PsU modifications. Transfected cells were then cultured for one day with different dosages of IFN-γ. mCherry expression was monitored on an Incucyte® live imaging microscope.
The effect of another RNaseL inhibitor (RLI or ABCE1) was also tested to further validate the concept. Human macrophages were co-transfected with mRNA encoding mCherry comprising m6AGCap 1 and PsU modifications and with mRNA encoding ABCE1.

[4] = test system: CRL-2351 cells expressing nuclear GFP; test: Tumor killing by macrophages and Her2-Zeta CAR macrophages primed with plate-coated agonist proteins (Incucyte); type: cell-based, human; details: plate-coated protein, 3 h priming; FIGS. 5A, 6A, 7A
Method: (§1) To generate Her2-Zeta CAR expressing macrophages, primary human macrophages were suspended in EP buffer (MaxCyte) containing 300 nM mRNA (TriLink) at a concentration of 90×10^6 cells/mL. 100 μL of cell mixture was added to an electroporation cassette (OC100×2; MaxCyte) and electroporated using the Experimental T cell 1 setting. Cells were removed from the cassette, plated in 3 mL of TexMACS media (Miltenyi Biotech) containing 20% FBS (Gibco) on UpCell plates (Thermo Scientific), and incubated overnight at 37 C and 5% CO2.
(§2) Recombinant CD40 ligand (Peprotech), 4-1BB ligand (Enzo Life Sciences), and 4-1BB receptor (Peprotech) were resuspended in molecular grade water to a stock concentration of 100 μg/mL. Stock solution was then used to create working solutions in PBS ranging from 2-0.002 μg/mL. 100 uL of working solution was added to wells in a 96-well plate and left at room temperature for 4 h.
Plates were removed from the incubator and left at room temperature for 30 min. Cells were detached from plate, counted using the NC-200 automated cell counter (Chemomtech), and re-suspended in TexMACS media with 10% FBS. […] Cell lysis was detected using Incucyte® analysis (Essen Bioscience). Tumor cell death was calculated by integrated GFP intensity per well relative to time 0.

[5] = test system: primary human macrophages; test: M1/M2 surface marker expression after priming with agonist proteins (flow cytometry); type: cell-based; details: mRNA CAR macrophages, 3 days on coated wells; FIGS. 5B, 6B, 7B
Method: as §1, §2
For detection of cell surface proteins, macrophages were plated onto wells coated with agonist molecules in a final volume of 200 uL TexMACS media+10% FBS+10 ng/mL GM-CSF and incubated for 3 days at 37 C and 5% CO2. Cells were incubated in 300 μL Accutase (Sigma) for 30 min and transferred to 96-well round bottom plate for staining. Cells were incubated in FACS buffer containing 20 μg/mL Her2-His for 20 min at RT, followed by incubation in Human TruStain FcX for 10 min at RT. […]

Molecule | M1 phenotype (based on CD86 expression) (Human macrophages [1]) | M2 markers (based on CD163 expression) (Human macrophages [1]) | secretion of IL-6, IL-8 and TNFα [2] | mCherry mRNA expression (Human macrophages [3]) | tumor killing ability of macrophages and CAR macrophages [4] | M1 phenotype (M1 and M2 markers) [5]
IFN-α | induction of an M1 phenotype | reduction of M2 markers | increased secretion of the cytokines IL-6, IL-8 and TNFα | – | – | –
IFN-γ: interferon cytokine that induces an M1 phenotype | induction of an M1 phenotype | reduction of M2 markers | increased secretion of the cytokines IL-6, IL-8 and TNFα | reduced mCherry mRNA expression | – | –
CD40L: Recombinant CD40 ligand (Peprotech), a CD40 agonist (protein, UniProt P29965 113-261, looked up) CD40 ligand, soluble form: MQKGDQNPQIAAHVISEASSKTTSVLQWAEKGYYTMSNNLVTLENGKQLTVKRQGLYYIYAQVTFCSNREASSQAPFIASLCLKSPGRFERILLRAANTHSSAKPCGQQSIHLGGVFELQPGASVFVNVTDPSQVSHGTGFTSFGLLKL | – | – | – | – | significantly improved the tumor killing ability | induced an M1 phenotype
